Results reported in patent US9062037B2, “Tazarotene derivatives” (Stiefel Laboratories, Inc., priority 2009, dated 2015).
Read-outs that look alike come from different tables or passages of the source.

Tests used:
[1] = system: Reconstructed human epidermis (RHE) tissues; assay: RT-qPCR gene expression of K10, K19, filaggrin, K4 and K13 in reconstructed human epidermis (RHE) cultures; format: cell-based; conditions: 72 h, 2.83 mM in OD/10% DMSO, 6 μl
Experimental: Reconstructed human epidermis (RHE) tissues were cultured in-house as previously described by Poumay et al. Briefly, polycarbonate culture inserts (12 mm diameter and 0.4 μm pore size, Millipore) were filled with 150 μL of a suspension containing approximately 5×10^5 primary adult human keratinocytes. The inserts received another 500 μL of keratinocyte culture media and were placed in a 6-well plate (1 insert/well) containing 2.5 mL of RHE Growth Media (Epilife media +1.5 mM CaCl2). RHE cultures were incubated at 37° C. in a humidified atmosphere containing 5% CO2, for 24 hours. Subsequently (on Day 0), RHE cultures were exposed to the air-liquid interface by removing the RHE Growth Media from the top of the cultures, and replacing with 1.5 mL/well of RHE Growth Media containing 50 μg/mL vitamin C. Media was changed every other day until the cultures were dosed with Test Articles. A stock solution of 0.1% tazarotene (2.83 mM at 99.5% purity) in OD/10% DMSO was prepared. For tazarotene benzoate, hydroxytazarotenic acid, keto tazarotenic acid, keto tazarotene, and tazarotene nicotinate, a 10 mg/mL stock solution (in DMSO) was already prepared. From this stock solution, a 2.83 mM working solution (in octyldodecanol) was prepared. All other tested compounds were resuspended in DMSO and OD to obtain a final concentration of 2.83 mM in OD/10% DMSO. On Day 12, the cultures were placed in 60 mm petri dishes containing 3 mL of RHE Growth Media (+VitC). Test articles (6 μl) were applied to triplicate cultures and cultures were incubated at 37° C. for 72 hours. Untreated and OD alone served as negative controls. At the end of the incubation period, the growth media was collected and stored at −20° C. The tissues were cut in half: one half was placed in 10% NBF for histology, and the other half was placed in RNAlater™ solution for RT-qPCR. RNA was isolated and concentrations were determined using a NanoDrop spectrophotometer. In addition to using the same amount of RNA for each sample, data was normalized to internal GAPDH mRNA levels and is expressed as relative quantification (RQ) to untreated controls. RNA extracts from each replicate were amplified using RT-qPCR. The relative gene expression of five biomarkers was determined: Keratin 10, Keratin 19, Filaggrin, Keratin 4, and Keratin 13.

[2] = Metabolism in the presence of human skin microsomes; conditions: human skin microsomes; paraoxon 0, 10 or 100 μM
Experimental: Hepatic microsomal reactions were carried out in microcentrifuge tubes in the following manner. Human liver microsomes (0.5 or 1.0 mg/ml protein), Test Article (1 or 10 μM), paraoxon (0, 10 or 100 μM), NADPH regenerating system (10 mM glucose-6-phosphate, 1 unit/ml glucose-6-phosphate dehydrogenase, 1 mM NADP^+), magnesium chloride (5 mM) in 0.1 M potassium phosphate buffer, pH 7.4 were incubated at 37° C. in a shaking water bath. Reactions were initiated with the addition of substrate with the exception of the zero-time incubations. The total reaction volume was 0.2 ml. The reactions were incubated for 15, 30, 45 or 60 minutes, terminated with 0.2 ml ice-cold acetonitrile and then placed on ice. For zero-time incubations, ice cold acetonitrile was added to the mixture containing microsomes, along with NADPH regenerating system, magnesium chloride in phosphate buffer and the Test Article. Each time point was carried out in triplicate.
Five time points were chosen, but because of the limitation of human skin microsome supply, each one was carried out in duplicate. Skin microsomal reactions were carried out as described above for hepatic microsomal reactions with the following two exceptions. Firstly, the total reaction volume was 0.1 mL. Secondly, incubations were terminated with 0.1 mL acetonitrile.

[3] = read-out: K4 Fold Change vs Untreated/OD controls (upregulation)
[4] = read-out: K13 Fold Change vs Untreated/OD controls (upregulation)
[5] = read-out: K19 Fold Change vs Untreated/OD controls (upregulation)
[6] = human liver microsomes, paraoxon 0, 10 or 100 μM

SMILES: CC1(C)CC(O)Sc2ccc(C#Cc3ccc(C(=O)O)cn3)cc21 (stereo not drawn) [Compound 10, 6-((2-hydroxy-4,4-dimethylthiochroman-6-yl)ethynyl)nicotinic acid]
- fold induction at 2830 µM [1, 3]: 65
- fold induction at 2830 µM [1, 4]: 11
- fold induction at 2830 µM [1, 5]: 25

SMILES: CCOC(=O)c1ccc(C#Cc2ccc3c(c2)C(C)(C)C[C@@H](OC(=O)c2cccnc2)S3)nc1 [Compound 8, (S)-6-[4,4-dimethyl-2-(pyridine-3-carbonyloxy)thiochroman-6-ylethynyl]nicotinic acid ethyl ester]
- fold induction at 2830 µM [1, 3]: 35
- fold induction at 2830 µM [1, 4]: 7
- fold induction at 2830 µM [1, 5]: 18

SMILES: CCCCCCCCCCCC(=O)OC1CC(C)(C)c2cc(C#Cc3ccc(C(=O)OCC)cn3)ccc2S1 (stereo not drawn) [Compound 19]
- fold induction at 2830 µM [1, 3]: 19
- fold induction at 2830 µM [1, 4]: 2
- fold induction at 2830 µM [1, 5]: 2

SMILES: CCCC(=O)OC1CC(C)(C)c2cc(C#Cc3ccc(C(=O)OCC)cn3)ccc2S1 (stereo not drawn) [Compound 18, Ethyl 6-[(2-n-butyryloxyl-4,4-dimethyl-3,4-dihydro-2-thiochromen-6-yl)ethynyl]pyridine-3-carboxylate]
- fold induction at 2830 µM [1, 3]: 60
- fold induction at 2830 µM [1, 4]: 9
- fold induction at 2830 µM [1, 5]: 22

SMILES: CCOC(=O)c1ccc(C#Cc2ccc3c(c2)C(C)(C)CC(OC(=O)C2CCN(C)CC2)S3)nc1 (stereo not drawn) [Compound 23]
- fold induction at 2830 µM [1, 3]: 73
- fold induction at 2830 µM [1, 4]: 19
- fold induction at 2830 µM [1, 5]: 33 to 43

SMILES: CCOC(=O)c1ccc(C#Cc2ccc3c(c2)C(C)(C)CC(OC(=O)[C@@H](N)C(C)C)S3)nc1 (stereo partly drawn) [Compound 29, 6-[2-((S)-2-Amino-3-methyl-butyryloxy)-4,4-dimethyl-thiochroman-6-ylethynyl]-nicotinic acid ethyl ester]
- fold induction at 2830 µM [1, 3]: 71
- fold induction at 2830 µM [1, 4]: 13
- fold induction at 2830 µM [1, 5]: 29

SMILES: CCOC(=O)c1ccc(C#Cc2ccc3c(c2)C(C)(C)CC(OC(=O)COC)S3)nc1 (stereo not drawn) [Compound 16]
- fold induction at 2830 µM [1, 3]: 69
- fold induction at 2830 µM [1, 4]: 9
- fold induction at 2830 µM [1, 5]: 20

SMILES: CCOC(=O)c1ccc(C#Cc2ccc3c(c2)C(C)(C)CC(OC(=O)CO)S3)nc1 (stereo not drawn) [Compound 15, 6-[2-(2-Hydroxy-acetoxy)-4,4-dimethyl-thiochroman-6-ylethynyl]-nicotinic acid ethyl ester]
- fold induction at 2830 µM [1, 3]: 64
- fold induction at 2830 µM [1, 4]: 12
- fold induction at 2830 µM [1, 5]: 33 to 43

SMILES: CCOC(=O)c1ccc(C#Cc2ccc3c(c2)C(C)(C)CC(O)S3)nc1 (stereo not drawn) [Compound 14, Ethyl 6-[(2-hydroxy-4,4-dimethyl-3,4-dihydro-2-thiochromen-6-yl)ethynyl]pyridine-3-carboxylate]
- fold induction at 2830 µM [1, 3]: 87
- fold induction at 2830 µM [1, 4]: 20
- fold induction at 2830 µM [1, 5]: 29

SMILES: CCOP(=O)(OCC)Oc1ccc([N+](=O)[O-])cc1 [Paraoxon]
- inhibition of tazarotene benzoate metabolism to hydroxy tazarotenic acid [2]: inhibited
- inhibition of the metabolism of tazarotenic acid to tazarotenic acid sulfoxide (CYP- and FMO-mediated reaction): did not inhibit
- inhibition of tazarotene benzoate metabolism to hydroxy tazarotenic acid [6]: inhibited
- inhibition of tazarotene metabolism to tazarotenic acid [6]: inhibited
- inhibition of tazarotene sulfoxide metabolism to tazarotenic acid sulfoxide [6]: inhibited

SMILES: CCOC(=O)c1ccc(C#Cc2ccc3c(c2)C(C)(C)C[C@@H](OC(=O)c2ccccc2)S3)nc1 [Compound 5, (S)-6-(2-(2-benzoyloxy-4,4-dimethylthiochroman-6-yl)ethynyl) nicotinic acid, ethyl ester]
- fold induction at 2830 µM [1, 3]: 45
- fold induction at 2830 µM [1, 4]: 7
- fold induction at 2830 µM [1, 5]: 8

SMILES: CCOC(=O)c1ccc(C#Cc2ccc3c(c2)C(C)(C)CC(OC(=O)C2CCOCC2)S3)nc1 (stereo not drawn) [Compound 26]
- fold induction at 2830 µM [1, 3]: 90
- fold induction at 2830 µM [1, 4]: 10
- fold induction at 2830 µM [1, 5]: 20

SMILES: CCOC(=O)c1ccc(C#Cc2ccc3c(c2)C(C)(C)CC(OC(=O)CCCCCCCC(=O)OC)S3)nc1 (stereo not drawn) [Compound 28]
- fold induction at 2830 µM [1, 3]: 103 to 180
- fold induction at 2830 µM [1, 4]: 18
- fold induction at 2830 µM [1, 5]: 30

SMILES: CCOC(=O)c1ccc(C#Cc2ccc3c(c2)C(C)(C)C[C@H](OC(=O)c2cccnc2)S3)nc1 [Compound 9, (R)-6-[4,4-dimethyl-2-(pyridine-3-carbonyloxy)thiochroman-6-ylethynyl]nicotinic acid ethyl ester]
- fold induction at 2830 µM [1, 3]: 32
- fold induction at 2830 µM [1, 4]: 5
- fold induction at 2830 µM [1, 5]: 17

SMILES: CC/C=C\C/C=C\C/C=C\CCCCCCC(=O)OC1CC(C)(C)c2cc(C#Cc3ccc(C(=O)OCC)cn3)ccc2S1 (stereo not drawn) [Compound 22]
- fold induction at 2830 µM [1, 3]: 38
- fold induction at 2830 µM [1, 4]: 10
- fold induction at 2830 µM [1, 5]: 12

SMILES: CCOC(=O)c1ccc(C#Cc2ccc3c(c2)C(C)(C)CC(OC(=O)C(C)C)S3)nc1 (stereo not drawn) [Compound 20, Ethyl 6-[(2-isobutyryloxy-4,4-dimethyl-3,4-dihydro-2-thiochromen-6-yl)ethynyl]pyridine-3-carboxylate]
- fold induction at 2830 µM [1, 3]: 22
- fold induction at 2830 µM [1, 4]: 6
- fold induction at 2830 µM [1, 5]: 15

SMILES: CCOC(=O)c1ccc(C#Cc2ccc3c(c2)C(C)(C)CC(OC(=O)c2ccccc2O)S3)nc1 (stereo not drawn) [Compound 25, Ethyl 6-[(2-salicylicyl-4,4-dimethyl-3,4-dihydro-2-thiochromen-6-yl)ethynyl]pyridine-3-carboxylate]
- fold induction at 2830 µM [1, 3]: 103 to 180
- fold induction at 2830 µM [1, 4]: 17
- fold induction at 2830 µM [1, 5]: 23

SMILES: CC1(C)CC(=O)Sc2ccc(C#Cc3ccc(C(=O)O)cn3)cc21 [Compound 11, 6-((4,4-dimethyl-2-oxothiochroman-6-yl)ethynyl)nicotinic acid]
- fold induction at 2830 µM [1, 3]: 52
- fold induction at 2830 µM [1, 4]: 20
- fold induction at 2830 µM [1, 5]: 21

SMILES: CCOC(=O)c1ccc(C#Cc2ccc3c(c2)C(C)(C)CC(OC(=O)CCCCC(=O)OC)S3)nc1 (stereo not drawn) [Compound 27, Ethyl 6-[(2-monomethyladopyl-4,4-dimethyl-3,4-dihydro-2-thiochromen-6-yl)ethynyl]pyridine-3-carboxylate]
- fold induction at 2830 µM [1, 3]: 70
- fold induction at 2830 µM [1, 4]: 19
- fold induction at 2830 µM [1, 5]: 33 to 43

SMILES: CCOC(=O)c1ccc(C#Cc2ccc3c(c2)C(C)(C)CC(OC(=O)CC)S3)nc1 (stereo not drawn) [Compound 24]
- fold induction at 2830 µM [1, 3]: 74
- fold induction at 2830 µM [1, 4]: 23
- fold induction at 2830 µM [1, 5]: 33 to 43

SMILES: CCCCCCCCCCCCCCCC(=O)OC1CC(C)(C)c2cc(C#Cc3ccc(C(=O)OCC)cn3)ccc2S1 (stereo not drawn) [Compound 13]
- fold induction at 2830 µM [1, 3]: 38
- fold induction at 2830 µM [1, 4]: 6
- fold induction at 2830 µM [1, 5]: 4

SMILES: CCOC(=O)c1ccc(C#Cc2ccc3c(c2)C(C)(C)C[C@H](OC(=O)c2ccccc2)S3)nc1 [Compound 6, (R)-6-(2-(2-benzoyloxy-4,4-dimethylthiochroman-6-yl)ethynyl)nicotinic acid, ethyl ester]
- fold induction at 2830 µM [1, 3]: 20
- fold induction at 2830 µM [1, 4]: 7
- fold induction at 2830 µM [1, 5]: 8

SMILES: CCOC(=O)c1ccc(C#Cc2ccc3c(c2)C(C)(C)CC(=O)S3)nc1 [Compound 12, ethyl 6-((4,4-dimethyl-2-oxothiochroman-6-yl)ethynyl)nicotinate]
- fold induction at 2830 µM [1, 3]: 103 to 180
- fold induction at 2830 µM [1, 4]: 15
- fold induction at 2830 µM [1, 5]: 27

SMILES: CCOC(=O)c1ccc(C#Cc2ccc3c(c2)C(C)(C)CC(OC(C)=O)S3)nc1 (stereo not drawn) [Compound 17]
- fold induction at 2830 µM [1, 3]: 103 to 180
- fold induction at 2830 µM [1, 4]: 15
- fold induction at 2830 µM [1, 5]: 24

SMILES: CCOc1ccc2ccc(=O)oc2c1 [7-ethoxycoumarin]
- metabolized by human liver microsomes (positive control) (initial concentration 10 μM, 0 or 30 minutes): as expected
